According to patent US6538037B2, “Methods for preparation and use of 1α,24(S)-dihydroxyvitamin D2” (Bone Care International, Inc., priority 1991, dated 2003):

Assay: Dermatological testing, topical treatment of dermatitis
Assay type: in vivo, human
Conditions: ointment 10 μg per gram, twice daily
Method: Compositions containing 1α,24(S)-dihydroxyvitamin D2 are evaluated for therapeutic efficacy of the composition in the topical treatment of dermatitis (contact and ectopic). The composition evaluated is an ointment containing 10 μg of 1α,24-dihydroxyvitamin D2 per gram of ointment in a petrolatum-almond oil base. […] The patients are treated in an out-patient clinic. They are instructed to use the preparation two times a day.
The ointment is as far as possible applied to a single lesion, or to an area of the disease. The ointment and its container are weighed before the treatment starts and returned with any unused contents for reweighing at the end of the treatment.
The area of the lesion treated is estimated and recorded, and the lesion is photographed as required, together with suitable “control” lesions. The latter are preferably lesions of similar size and stage of development, either in the vicinity of the treated lesion or symmetrically contralateral. Relevant details of the photographic procedure are recorded so as to be reproduced when the lesions are next photographed (distance, aperture, angle, background, etc.). The ointment is applied twice daily and preferably left uncovered. The “control” lesions are left untreated, but if this is not possible, the treatment used on them is noted. […]

In the case of `C=C1/C(=C\C=C2/CCC[C@]3(C)[C@@H]([C@H](C)/C=C/[C@@](C)(O)C(C)C)CC[C@@H]23)C[C@@H](O)C[C@@H]1O` [1α,24(S)-(OH)2D2, 1α,24(S)-dihydroxyvitamin D2], the incidence of hypercalcemia is reported as “insignificant incidence of hypercalcemia” and the “lesion severity scores (erythema, scaling, thickness; 0 to 3)” value (four to six weeks) is reported as “lower scores than the control lesions”.
